Assay results from article PMC11995724, “Antibiotic target discovery by integrated phenotypic and activity-based profiling of electrophilic fragments” (Cell chemical biology, 2025).

Experiment: in vitro
Settings: human, hek293t cells

Compound | viability at 48 h, 25 µM
CCc1nsc(N2CCCN(C(=O)C(C)Cl)CC2)n1 (stereo not drawn) [7-B15, 2-chloro-1-[4-(3-ethyl-1,2,4-thiadiazol-5-yl)-1,4-diazepan-1-yl]propan-1-one] | 84.3%
O=C(CCl)NCCCC1CCCCC1 [6-O05, 2-chloro-N-(3-cyclohexylpropyl)acetamide] | 45.7%
C=CC(=O)NCc1ccnc(N2CCSCC2)c1 [1-I14, N-{[2-(thiomorpholin-4-yl)pyridin-4-yl]methyl}prop-2-enamide] | 22.1%
Cc1cc(N(CCC#N)C(=O)CCl)ccc1Cl [4-K15, 2-chloro-N-(4-chloro-3-methylphenyl)-N-(2-cyanoethyl)acetamide] | 0.75%
COc1ccc(C=C(C#N)C(=O)Nc2cccc3c2C(=O)NC3=O)cc1 [8-F13, 2-cyano-N-(1,3-dioxo-2,3-dihydro-1H-isoindol-4-yl)-3-(4-methoxyphenyl)prop-2-enamide] | 119%
CC(Cl)C(=O)N1CCC(Oc2cnc3ccccc3n2)CC1 (stereo not drawn) [7-I18, 2-chloro-1-[4-(quinoxalin-2-yloxy)piperidin-1-yl]propan-1-one] | 68.7%
Cc1ccc(F)cc1NC(=O)CCl [4-O03, 2-chloro-N-(5-fluoro-2-methylphenyl)acetamide] | 0.509%
CCc1ccc(NC(=O)CCl)cc1 [4-P03, 2-chloro-N-(4-ethylphenyl)acetamide] | 0.338%
C=CC(=O)N1CSCC1C(=O)NCC1CC1 (stereo not drawn) [1-P17, N-(cyclopropylmethyl)-3-(prop-2-enoyl)-1,3-thiazolidine-4-carboxamide] | 105%
Cc1cc(C(=O)CCl)co1 [10-A13, 2-chloro-1-(5-methylfuran-3-yl)ethan-1-one] | 41.5%
CN(C)C(=O)c1cc2n(n1)CC1(CCN(C(=O)CCl)CC1)OC2 [5-K11, 1-(2-chloroacetyl)-N,N-dimethyl-4',7'-dihydrospiro[piperidine-4,6'-pyrazolo[3,2-c][1,4]oxazine]-2'-carboxamide] | 0.714%
C=CC(=O)NC1(c2nc(C)no2)CC1 [3-L09, N-[1-(3-methyl-1,2,4-oxadiazol-5-yl)cyclopropyl]prop-2-enamide] | 46.8%
CCn1ccc(CN(C)C(=O)CCl)n1 [5-K06, 2-chloro-N-[(1-ethyl-1H-pyrazol-3-yl)methyl]-N-methylacetamide] | 1.77%
Cc1cc(C)c(NC(=O)C(C#N)=Cc2cccnc2)c(C)c1 [8-B17, 2-cyano-3-(pyridin-3-yl)-N-(2,4,6-trimethylphenyl)prop-2-enamide] | 122%
Cc1cc(C=C(C#N)C(=O)NCc2ccccc2)c(C)n1C1CC1 [8-G14, N-benzyl-2-cyano-3-(1-cyclopropyl-2,5-dimethyl-1H-pyrrol-3-yl)prop-2-enamide] | 74%
O=C(CCl)NCCc1ncc(F)cn1 [6-E19, 2-chloro-N-[2-(5-fluoropyrimidin-2-yl)ethyl]acetamide] | 104%
CC(Cl)C(=O)NC(=O)NC12CC3CC(CC(C3)C1)C2 (stereo not drawn) [6-D10, 1-(adamantan-1-yl)-3-(2-chloropropanoyl)urea] | 101%
Cc1csc(CN2CCN(C(=O)C(C)Cl)CC2)n1 (stereo not drawn) [5-H17, 2-chloro-1-{4-[(4-methyl-1,3-thiazol-2-yl)methyl]piperazin-1-yl}propan-1-one] | 87.4%
Cc1ccc(C=C(C#N)C(=O)Nc2ccccc2C(=O)O)s1 [9-K08, 2-[2-cyano-3-(5-methylthiophen-2-yl)prop-2-enamido]benzoic acid] | 104%
C=CC(=O)Nc1ccc(C(=O)Nc2ccc(N3CCOCC3)nc2)cc1 [1-K15, N-[6-(morpholin-4-yl)pyridin-3-yl]-4-(prop-2-enamido)benzamide] | 1.79%
C=CC(=O)Nc1sc2c(c1C(N)=O)CCCCC2 [1-F21, 2-(prop-2-enamido)-4H,5H,6H,7H,8H-cyclohepta[b]thiophene-3-carboxamide] | 113%
